Measured values: PubChem BioAssay AID220 (DTP/NCI, 2004)
“And” between values parts separate entries of the source, which are not always exact repeats. Equal values may be shown once. Inconclusive results are not listed.

Tested on: CD8F1 mice, subcutaneous mammary adenocarcinoma, T/C%
Assay: NCI In Vivo Anticancer Drug Screen. Data for tumor model Mammary Adenocarcinoma CD8F1 (subcutaneous) in CD8F1
Conditions: higher = larger tumour
Method: The antitumor activity of compounds was measured in mice bearing transplantable tumors. Survival or tumor size were measured and the results are expressed as the measurement made in the treated group (T) divided by the measurement made in the vehicle treated control group (C). The tumor model used in this assay is Mammary Adenocarcinoma CD8F1 (subcutaneous) in CD8F1

[1] = endpoint: median tumor weight (est.), dose: 12.5 mg/kg/injection, schedule: Q07DX005 (ip), vehicle: saline
[2] = endpoint: median tumor weight (est.), dose: 12.5 mg/kg/injection, schedule: Q07DX005 (ip), vehicle: saline with Tween-80
[3] = endpoint: median tumor weight (est.), dose: 25.0 mg/kg/injection, schedule: Q07DX005 (ip), vehicle: saline with Tween-80
[4] = endpoint: median tumor weight (est.), dose: 50.0 mg/kg/injection, schedule: Q07DX005 (ip), vehicle: saline with Tween-80
[5] = endpoint: median tumor weight (est.), dose: 100.0 mg/kg/injection, schedule: Q07DX005 (ip), vehicle: saline with Tween-80
[6] = endpoint: median tumor weight (est.), dose: 200.0 mg/kg/injection, schedule: Q07DX005 (ip), vehicle: saline with Tween-80
[7] = endpoint: median tumor weight (est.), dose: 4.0 mg/kg/injection, schedule: Q07DX005 (ip), vehicle: saline
[8] = endpoint: median tumor weight (est.), dose: 8.0 mg/kg/injection, schedule: Q07DX005 (ip), vehicle: saline
[9] = endpoint: median tumor weight change, dose: 125.0 mg/kg/injection, schedule: Q01DX001 (ip), vehicle: saline
[10] = endpoint: median tumor weight change, dose: 250.0 mg/kg/injection, schedule: Q01DX001 (ip), vehicle: saline
[11] = endpoint: median tumor weight change, dose: 125.0 mg/kg/injection, schedule: Q01DX001 (ip), vehicle: saline with Tween-80
[12] = endpoint: median tumor weight (est.), dose: 6.25 mg/kg/injection, schedule: Q07DX005 (ip), vehicle: Klucel (hydroxypropylcellulose) (HPC)

## CCS/C(SC)=C(/c1ccccc1)[P+](c1ccccc1)(c1ccccc1)c1ccccc1
endpoint: median tumor weight change, dose: 0.5 mg/kg/injection, schedule: Q01DX001 (ip), vehicle: Klucel (hydroxypropylcellulose) (HPC)
  T/C: 159 % of control
endpoint: median tumor weight change, dose: 1.0 mg/kg/injection, schedule: Q01DX001 (ip), vehicle: Klucel (hydroxypropylcellulose) (HPC)
  T/C: 100 % of control
endpoint: median tumor weight change, dose: 2.0 mg/kg/injection, schedule: Q01DX001 (ip), vehicle: Klucel (hydroxypropylcellulose) (HPC)
  T/C: 114 % of control
endpoint: median tumor weight change, dose: 4.0 mg/kg/injection, schedule: Q01DX001 (ip), vehicle: Klucel (hydroxypropylcellulose) (HPC)
  T/C: 81 % of control
endpoint: median tumor weight change, dose: 8.0 mg/kg/injection, schedule: Q01DX001 (ip), vehicle: Klucel (hydroxypropylcellulose) (HPC)
  T/C: 43 % of control

## N=c1nc2n(cc1F)[C@@H]1O[C@H](CO)[C@@H](O)[C@@H]1O2
[1]
  T/C: 25 % of control
endpoint: median tumor weight (est.), dose: 50.0 mg/kg/injection, schedule: Q07DX005 (ip), vehicle: saline
  T/C: 71 % of control
endpoint: median tumor weight (est.), dose: 50.0 mg/kg/injection, schedule: Q07DX005 (ip), vehicle: suspension in saline
  T/C: 86 % of control
endpoint: median tumor weight (est.), dose: 100.0 mg/kg/injection, schedule: Q07DX005 (ip), vehicle: saline
  T/C: 68 % of control
endpoint: median tumor weight (est.), dose: 100.0 mg/kg/injection, schedule: Q07DX005 (ip), vehicle: suspension in saline
  T/C: 57 % of control
endpoint: median tumor weight (est.), dose: 200.0 mg/kg/injection, schedule: Q07DX005 (ip), vehicle: saline
  T/C: 56 % of control
endpoint: median tumor weight (est.), dose: 200.0 mg/kg/injection, schedule: Q07DX005 (ip), vehicle: suspension in saline
  T/C: 63 % of control
endpoint: median tumor weight (est.), dose: 400.0 mg/kg/injection, schedule: Q07DX005 (ip), vehicle: saline
  T/C: 33 % of control
endpoint: median tumor weight (est.), dose: 400.0 mg/kg/injection, schedule: Q07DX005 (ip), vehicle: suspension in saline
  T/C: 69 % of control
endpoint: median tumor weight (est.), dose: 800.0 mg/kg/injection, schedule: Q07DX005 (ip), vehicle: suspension in saline
  T/C: 58 % of control
endpoint: median tumor weight (est.), dose: 1600.0 mg/kg/injection, schedule: Q07DX005 (ip), vehicle: suspension in saline
  T/C: 72 % of control

## CS(=O)(=O)CS(=O)(=O)OCCCl
endpoint: median tumor weight change, dose: 125.0 mg/kg/injection, schedule: Q01DX001 (ip), vehicle: suspension in saline
  T/C: 56 % of control
endpoint: median tumor weight change, dose: 250.0 mg/kg/injection, schedule: Q01DX001 (ip), vehicle: suspension in saline
  T/C: 68 % of control

## CC(=O)C(=O)O.CC(=O)C(=O)O.[NH-]C1CCCCC1[NH-].[Pt+2] (centres undefined)
endpoint: median tumor weight change, dose: 15.0 mg/kg/injection, schedule: Q01DX001 (ip), vehicle: dextrose
  T/C: 70 % of control
endpoint: median tumor weight change, dose: 30.0 mg/kg/injection, schedule: Q01DX001 (ip), vehicle: dextrose
  T/C: 79 % of control
endpoint: median tumor weight change, dose: 60.0 mg/kg/injection, schedule: Q01DX001 (ip), vehicle: dextrose
  T/C: 51 % of control
endpoint: median tumor weight change, dose: 62.5 mg/kg/injection, schedule: Q01DX001 (ip), vehicle: dextrose
  T/C: -38 % of control
endpoint: median tumor weight change, dose: 120.0 mg/kg/injection, schedule: Q01DX001 (ip), vehicle: dextrose
  T/C: 45 % of control

## C=CCNc1nc2c(s1)CCc1cc(OC)c(OC)cc1-2
[2]
  T/C: 65 % of control
[3]
  T/C: 44 % of control
[4]
  T/C: 55 % of control
[5]
  T/C: 74 % of control
[6]
  T/C: 81 % of control

## OCC1OC(n2cnc3cncnc32)C(O)C1O (centres undefined)
endpoint: median tumor weight (est.), dose: 3.12 mg/kg/injection, schedule: Q07DX005 (ip), vehicle: saline
  T/C: 114 % of control
endpoint: median tumor weight (est.), dose: 6.25 mg/kg/injection, schedule: Q07DX005 (ip), vehicle: saline
  T/C: 59 % of control
[1]
  T/C: 65 % of control

## OC(C1CO1)C(O)C1CO1 (centres undefined)
endpoint: median tumor weight (est.), dose: 0.5 mg/kg/injection, schedule: Q07DX005 (ip), vehicle: saline
  T/C: 49 % of control
endpoint: median tumor weight (est.), dose: 1.0 mg/kg/injection, schedule: Q07DX005 (ip), vehicle: saline
  T/C: 28 % of control
endpoint: median tumor weight (est.), dose: 2.0 mg/kg/injection, schedule: Q07DX005 (ip), vehicle: saline
  T/C: 37 % of control
[7]
  T/C: 13 % of control
[8]
  T/C: 5 % of control

## O=C(O)C1CC(O)CN1 (centres undefined)
[9]
  T/C: 71 % of control
[10]
  T/C: 64 % of control and 78 % of control
endpoint: median tumor weight change, dose: 500.0 mg/kg/injection, schedule: Q01DX001 (ip), vehicle: saline
  T/C: 59 % of control and 69 % of control
endpoint: median tumor weight change, dose: 1000.0 mg/kg/injection, schedule: Q01DX001 (ip), vehicle: saline
  T/C: 66 % of control and 70 % of control
endpoint: median tumor weight change, dose: 2000.0 mg/kg/injection, schedule: Q01DX001 (ip), vehicle: saline
  T/C: 13 % of control and 15 % of control

## Clc1ccc(C(c2ccc(Cl)cc2)C(Cl)(Cl)Cl)cc1
endpoint: median tumor weight change, dose: 31.25 mg/kg/injection, schedule: Q01DX001 (ip), vehicle: Klucel (hydroxypropylcellulose) (HPC)
  T/C: 106 % of control
endpoint: median tumor weight change, dose: 62.5 mg/kg/injection, schedule: Q01DX001 (ip), vehicle: Klucel (hydroxypropylcellulose) (HPC)
  T/C: 84 % of control
endpoint: median tumor weight change, dose: 125.0 mg/kg/injection, schedule: Q01DX001 (ip), vehicle: Klucel (hydroxypropylcellulose) (HPC)
  T/C: 123 % of control
endpoint: median tumor weight change, dose: 250.0 mg/kg/injection, schedule: Q01DX001 (ip), vehicle: Klucel (hydroxypropylcellulose) (HPC)
  T/C: 80 % of control
endpoint: median tumor weight change, dose: 500.0 mg/kg/injection, schedule: Q01DX001 (ip), vehicle: Klucel (hydroxypropylcellulose) (HPC)
  T/C: 59 % of control

## Nc1c(C(=O)O)[nH]c(=O)[nH]c1=O
[2]
  T/C: 83 % of control

## CN1C(=O)C(=Cc2ccc(O)cc2)C(=O)N(C)C1=O
[11]
  T/C: 94 % of control
endpoint: median tumor weight change, dose: 500.0 mg/kg/injection, schedule: Q01DX001 (ip), vehicle: saline with Tween-80
  T/C: 165 % of control

## C[C@H](CCC[C@H](C)OS(=O)(=O)c1ccccc1)OS(=O)(=O)c1ccccc1
[3]
  T/C: 57 % of control
[4]
  T/C: 41 % of control
[5]
  T/C: 57 % of control
[6]
  T/C: 39 % of control

## OCC1OC(n2cnc3cc(Cl)c(Cl)cc32)C(O)C1O (centres undefined)
[2]
  T/C: 79 % of control
[3]
  T/C: 89 % of control and 92 % of control
[6]
  T/C: 80 % of control

## NS(=O)(=O)OCCCCCCCOS(N)(=O)=O
endpoint: median tumor weight change, dose: 62.0 mg/kg/injection, schedule: Q01DX001 (ip), vehicle: saline with Tween-80
  T/C: 66 % of control
endpoint: median tumor weight change, dose: 62.5 mg/kg/injection, schedule: Q01DX001 (ip), vehicle: saline with Tween-80
  T/C: 22 % of control
[11]
  T/C: 33 % of control and 34 % of control
endpoint: median tumor weight change, dose: 250.0 mg/kg/injection, schedule: Q01DX001 (ip), vehicle: saline with Tween-80
  T/C: -27 % of control and -36 % of control

## S=c1nc[nH]c2nc[nH]c12
endpoint: mean tumor weight (est.), dose: 135.0 mg/kg/injection, schedule: Q07DX005 (ip), vehicle: sodium bicarbonate
  T/C: 42 % of control
endpoint: mean tumor weight, dose: 15.0 mg/kg/injection, schedule: Q01DX009 (ip), vehicle: saline
  T/C: 16 % of control
endpoint: mean tumor weight, dose: 30.0 mg/kg/injection, schedule: Q01DX009 (ip), vehicle: saline
  T/C: 5 % of control
endpoint: mean tumor weight, dose: 35.0 mg/kg/injection, schedule: Q07DX007 (ip), vehicle: saline
  T/C: 98 % of control
endpoint: mean tumor weight, dose: 60.0 mg/kg/injection, schedule: Q01DX009 (ip), vehicle: saline
  T/C: 14 % of control
endpoint: mean tumor weight, dose: 67.5 mg/kg/injection, schedule: Q07DX005 (ip), vehicle: saline
  T/C: 57 % of control
endpoint: mean tumor weight, dose: 67.5 mg/kg/injection, schedule: Q07DX006 (ip), vehicle: sodium bicarbonate
  T/C: 49 % of control
endpoint: mean tumor weight, dose: 67.5 mg/kg/injection, schedule: Q07DX007 (ip), vehicle: saline
  T/C: 81 % of control
endpoint: mean tumor weight, dose: 135.0 mg/kg/injection, schedule: Q07DX005 (ip), vehicle: saline
  T/C: 37 % of control
[7]
  T/C: 73 % of control
[12]
  T/C: 78 % of control
[8]
  T/C: 78 % of control
endpoint: median tumor weight (est.), dose: 16.0 mg/kg/injection, schedule: Q07DX005 (ip), vehicle: saline
  T/C: 350 % of control
endpoint: median tumor weight (est.), dose: 25.0 mg/kg/injection, schedule: Q07DX005 (ip), vehicle: Klucel (hydroxypropylcellulose) (HPC)
  T/C: 80 % of control
endpoint: median tumor weight (est.), dose: 32.0 mg/kg/injection, schedule: Q07DX005 (ip), vehicle: saline
  T/C: 78 % of control
endpoint: median tumor weight (est.), dose: 50.0 mg/kg/injection, schedule: Q07DX005 (ip), vehicle: Klucel (hydroxypropylcellulose) (HPC)
  T/C: 48 % of control
endpoint: median tumor weight (est.), dose: 64.0 mg/kg/injection, schedule: Q07DX005 (ip), vehicle: saline
  T/C: 101 % of control
endpoint: median tumor weight (est.), dose: 100.0 mg/kg/injection, schedule: Q07DX005 (ip), vehicle: Klucel (hydroxypropylcellulose) (HPC)
  T/C: 17 % of control
endpoint: median tumor weight (est.), dose: 128.0 mg/kg/injection, schedule: Q07DX005 (ip), vehicle: saline
  T/C: 28 % of control

## CC(=O)CC(=O)CCC(=O)O
[9]
  T/C: 62 % of control
[10]
  T/C: 65 % of control

## CN=C(N)N/N=C(\C)c1ccc2c(c1)Cc1cc(/C(C)=N/NC(N)=NC)ccc1-2
endpoint: median tumor weight change, dose: 7.5 mg/kg/injection, schedule: Q01DX001 (ip), vehicle: saline with Tween-80
  T/C: 112 % of control
endpoint: median tumor weight change, dose: 15.0 mg/kg/injection, schedule: Q01DX001 (ip), vehicle: saline with Tween-80
  T/C: 102 % of control

## COc1ccc(C(N)=O)cc1N=NN(C)C
[12]
  T/C: 175 % of control
